Experimental data taken from patent US20030191096A1, “Method of hormonal therapy” (priority 2002, published 2003).

Test system: male accessory sex glands and tissues in sexually immature castrated male rats
Assay: Oral Hershberger Assay: weights of male accessory sex glands and tissues after ten days of oral gavage
Assay type: in vivo, rat
Settings: ten consecutive days
Method: Applicants performed a set of experiments to identify the potential for a compound to mimic endogenous sex hormones. An in vivo study was performed using a short-term screening assay to identify changes in weights of male accessory sex glands and tissues in sexually immature castrated male rats. The study preformed is known in the art as an “Oral Hershberger Assay”.
This study included forty-two sexually immature castrated male rats that were randomly assigned to seven different groups and assigned formulations of the test article, oxandrolone, positive control article, 17α-methyl testosterone, or the vehicle, aqueous 0.5% methylcellulose. These formulations were administered orally via gavage once daily for ten consecutive days at dosages of 0 (vehicle), 1, 3 and 10 mg/kg/day. The dosage volume was 0.5 mL/kg, adjusted daily for body weight changes and were given at approximately the same time each day.
Approximately 24 hours after the last dosage administration the rats were euthanized via carbon dioxide asphyxiation. The following tissues were excised trimmed and weighed: liver, paired adrenal glands, paired kidneys, ventral prostate, seminal vesicles together with the coagulating gland, levator ani and bulbocavemous muscles, glands penis and cowper's gland. These tissues were retained in neutral buffered 10% formalin to be used for any possible future evaluation.
The following table presents the percent changes from the control group value.

| Structure (SMILES) | Cowpers Gland, percent changes from the control group value (1 mg/kg/day orally via gavage) [%] | Glands Penis, percent changes from the control group value (1 mg/kg/day orally via gavage) [%] | Levator Ani and Bulbocavernous, percent changes from the control group value (1 mg/kg/day orally via gavage) [%] | Prostate (Fixed), percent changes from the control group value (1 mg/kg/day orally via gavage) [%] | Prostate, percent changes from the control group value (1 mg/kg/day orally via gavage) [%] | Seminal Vesicles with Fluid, percent changes from the control group value (1 mg/kg/day orally via gavage) [%] | Cowpers Gland, percent changes from the control group value (3 mg/kg/day orally via gavage) [%] | Glands Penis, percent changes from the control group value (3 mg/kg/day orally via gavage) [%] | Levator Ani and Bulbocavernous, percent changes from the control group value (3 mg/kg/day orally via gavage) [%] | Prostate (Fixed), percent changes from the control group value (3 mg/kg/day orally via gavage) [%] | Prostate, percent changes from the control group value (3 mg/kg/day orally via gavage) [%] | Seminal Vesicles with Fluid, percent changes from the control group value (3 mg/kg/day orally via gavage) [%] | Cowpers Gland, percent changes from the control group value (10 mg/kg/day orally via gavage) [%] | Glands Penis, percent changes from the control group value (10 mg/kg/day orally via gavage) [%] | Levator Ani and Bulbocavernous, percent changes from the control group value (10 mg/kg/day orally via gavage) [%] | Prostate (Fixed), percent changes from the control group value (10 mg/kg/day orally via gavage) [%] | Prostate, percent changes from the control group value (10 mg/kg/day orally via gavage) [%] | Seminal Vesicles with Fluid, percent changes from the control group value (10 mg/kg/day orally via gavage) [%] |
| --- | --- | --- | --- | --- | --- | --- | --- | --- | --- | --- | --- | --- | --- | --- | --- | --- | --- | --- |
| C[C@]12CCC(=O)C=C1CC[C@@H]1[C@@H]2CC[C@@]2(C)[C@H]1CC[C@]2(C)O [Meth-Test, 17α-methyl testosterone] | 88.7 | 127.9 | 111.0 | 101.9 | 97.0 | 89.6 | 179.0 | 102.6 | 114.2 | 119.0 | 109.1 | 118.0 | 237.1 | 122.9 | 139.7 | 234.0 | 222.5 | 194.4 |
| C[C@]12COC(=O)C[C@@H]1CC[C@@H]1[C@@H]2CC[C@@]2(C)[C@H]1CC[C@]2(C)O [Oxandro, oxandrolone] | 137.1 | 104.1 | 107.3 | 127.6 | 135.3 | 100.7 | 159.7 | 107.4 | 148.2 | 149.9 | 139.4 | 120.1 | 206.5 | 109.6 | 192.4 | 192.2 | 166.3 | 171.0 |
